Data taken from publication PMC2993773 (Journal of natural products, 2010).

Legend:
[1] = test system: KB-VIN multidrug-resistant human cancer cell line; experiment: In vitro cytotoxicity; format: cell-based
[2] = test system: P-388 murine leukemia cells; conditions: in vitro; cited from earlier work
[3] = test system: KB nasopharyngeal human cancer cell line; experiment: In vitro cytotoxicity; format: cell-based; conditions: KB cells (value in parentheses)

C=C(CC[C@@H](C)[C@H]1CC[C@@]2(O)C3=C(C(=O)C[C@]12C)[C@@]1(C)CCC(=O)[C@@H](C)C1C[C@@H]3O)C(C)C(=O)O (stereo partly drawn) [Compound 4, 7β,14α-dihydroxy-3,11-dioxo-4α-methylergosta-8,24(28)-dien-26-oic acid]
substrate of P-glycoprotein (P-gp) ([1]; not told): not substrates of P-glycoprotein

C=C(CC[C@@H](C)[C@H]1CC[C@H]2C3=C(C(=O)C[C@]12C)[C@@]1(C)CCC(=O)[C@@H](C)[C@@H]1C[C@@H]3O)C(C)C(=O)OC (stereo partly drawn) [Compound 6, methyl 7β-hydroxy-3,11-dioxo-4α-methylergosta-8,24(28)-dien-26-oate]
substrate of P-glycoprotein (P-gp) ([1]; inferred from lack of cross-resistance shown by KB-VIN): not substrates of P-glycoprotein

C=C(CC[C@@H](C)[C@H]1CC[C@H]2C3=C(C(=O)C[C@]12C)[C@@]1(C)CCC(=O)[C@@H](C)[C@@H]1CC3=O)C(C)C(=O)O (stereo partly shown) [Compound 11, zhankuic acid A]
cytotoxicity against P-388 murine leukemia cells [2]: significant cytotoxicity

C=C(CC[C@@H](C)[C@H]1CC[C@H]2C3=C(C(=O)[C@H](O)[C@]12C)[C@@]1(C)CC[C@@H](O)[C@@H](C)[C@@H]1CC3=O)C(C)C(=O)O (stereo partly shown) [Compound 13, zhankuic acid C]
cytotoxicity against P-388 murine leukemia cells [2]: significant cytotoxicity

COc1cc([C@@H]2c3cc4c(cc3[C@@H](O[C@@H]3O[C@@H]5CO[C@@H](C)O[C@H]5[C@H](O)[C@H]3O)[C@H]3COC(=O)[C@H]23)OCO4)cc(OC)c1O [etoposide, reference compound]
activity in KB-VIN relative to KB (cross-resistance) ([1]; KB-VIN versus KB): at least eight-fold less active

eburicol [Compound 19]
% inhibition at 20 μM, KB [3]: 34% | % inhibition at 20 μM, KB-VIN ([1]; 20 μM, KB-VIN cells (value in parentheses)): 18%
